Experimental data: patent publication US9113629B2, “4-amino-6-(4-substituted-phenyl)-picolinates and 6-amino-2-(4-substituted-phenyl)-pyrimidine-4-carboxylates and their use as herbicides” (DOW AGROSCIENCES LLC, priority 2013, dated 2015)
Like-named read-outs stand apart in the source and are kept apart here.

Experiments:
[1] = test system: Key Broadleaf Weed and Crop Species; test: Post-emergent Test II herbicidal activity (Table 5); assay type: in vivo; conditions: post-emergence, 336 h, 14 days after application; for pest or weed control at 70 g/ha: application rate 70 g ai/ha; for pest or weed control at 140 g/ha: application rate 140 g ai/ha
How it was run: (§1)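 Spray rates: a highest rate plus ½×, ¼×, ⅛×, 1/16×, all delivered at 187 L/ha to plants at the first–second true leaf stage. Readout is a visual percent injury score at 14 d, where 100 means complete kill.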

[2] = test system: Key Grass and Sedge Weeds as well as Grass Crops; test: Post-emergent Test II herbicidal activity (Table 6); assay type: in vivo; conditions: post-emergence, 336 h; for pest or weed control at 70 g/ha: 70 g ai/ha; for pest or weed control at 140 g/ha: 140 g ai/ha
How it was run: as §1

[3] = ABUTH: velvetleaf (Abutilon theophrasti), read-out: Visual Growth Reduction (%) 14 Days After Application, ABUTH
[4] = AMARE: redroot pigweed (Amaranthus retroflexus), read-out: Visual Growth Reduction (%) 14 Days After Application, AMARE
[5] = BRSNN: oilseed-rape, canola (Brassica napus), read-out: Visual Growth Reduction (%) 14 Days After Application, BRSNN
[6] = CHEAL: lambsquarters (Chenopodium album), read-out: Visual Growth Reduction (%) 14 Days After Application, CHEAL
[7] = EPHHL: wild poinsettia (Euphorbia heterophylla), read-out: Visual Growth Reduction (%) 14 Days After Application, EPHHL
[8] = HELAN: sunflower (Helianthus annuus), read-out: Visual Growth Reduction (%) 14 Days After Application, HELAN
[9] = VIOTR: wild pansy (Viola tricolor), read-out: Visual Growth Reduction (%) 14 Days After Application, VIOTR
[10] = CYPES: yellow nutsedge (Cyperus esculentus), read-out: Visual Growth Reduction (%) 14 Days After Application, CYPES
[11] = DIGSA: crabgrass (Digitaria sanguinalis), read-out: Visual Growth Reduction (%) 14 Days After Application, DIGSA
[12] = ECHCG: barnyardgrass (Echinochloa crus-galli), read-out: Visual Growth Reduction (%) 14 Days After Application, ECHCG
[13] = ORYSA: rice (Oryza sativa), crop, read-out: Visual Growth Reduction (%) 14 Days After Application, ORYSA
[14] = SETFA: giant foxtail (Setaria faberi), read-out: Visual Growth Reduction (%) 14 Days After Application, SETFA
[15] = SORVU: grain sorghum (Sorghum vulgare), read-out: Visual Growth Reduction (%) 14 Days After Application, SORVU
[16] = TRZSS (wheat, Triticum aestivum), crop, read-out: Visual Growth Reduction (%) 14 Days After Application, TRZSS
[17] = ZEAMX: maize, corn (Zea mays), crop, read-out: Visual Growth Reduction (%) 14 Days After Application, ZEAMX

COC(=O)c1nc(-c2ccc(Br)cc2)nc(N)c1OC [Compound 97]
95 to 100%: pest or weed control at 140 g/ha [1, 3] | pest or weed control at 70 g/ha [1, 4] | pest or weed control at 140 g/ha [1, 4] | pest or weed control at 140 g/ha [1, 5] | pest or weed control at 140 g/ha [1, 6] | pest or weed control at 70 g/ha [1, 7] | pest or weed control at 140 g/ha [1, 7] | pest or weed control at 140 g/ha [1, 8] | pest or weed control at 140 g/ha [1, 9] | pest or weed control at 70 g/ha [2, 10] | pest or weed control at 140 g/ha [2, 10] | pest or weed control at 70 g/ha [2, 17] | pest or weed control at 140 g/ha [2, 17]
85 to 94%: pest or weed control at 70 g/ha [1, 3] | pest or weed control at 70 g/ha [1, 5] | pest or weed control at 70 g/ha [1, 6]
0 to 29%: pest or weed control at 70 g/ha [2, 12] | pest or weed control at 70 g/ha [2, 13] | pest or weed control at 140 g/ha [2, 13] | pest or weed control at 70 g/ha [2, 14] | pest or weed control at 70 g/ha [2, 15]
30 to 44%: pest or weed control at 140 g/ha [2, 14] | pest or weed control at 140 g/ha [2, 15] | pest or weed control at 70 g/ha [2, 16]
45 to 59%: pest or weed control at 70 g/ha [2, 11] | pest or weed control at 140 g/ha [2, 11]
75 to 84%: pest or weed control at 70 g/ha [1, 8]
60 to 74%: pest or weed control at 70 g/ha [1, 9] | pest or weed control at 140 g/ha [2, 12] | pest or weed control at 140 g/ha [2, 16]
